Laboratory results: patent US20180250320A1, “COMPOSITIONS AND METHODS FOR TREATING SOLID TUMORS” (THE JOHNS HOPKINS UNIVERSITY, priority 2015, published 2018)
Like-named read-outs stand apart in the source and are kept apart here.

Columns and labels:
[1] = system: VEGF-defensin ID8 ovarian cells; assay: Ascites fluid volume in the ID8 model of ovarian cancer; type: in vivo; settings: mice drained at week 6 after injection; same regimen; vs untreated (Mock) or single agent
Description: Mice were injected with 2.5×10^6VEGF-defensin ID8 ovarian cells i.p. Three days later, mice began treatment with 0.5 mg/kg 5-azacytidine (AZA) for 5 days per week. The next week the mice were treated with either 2 mg/kg MS275 or ITF 5 days a week, and the treatments alternated by week until the end of the experiment. Mice developed ascites fluid by week 4.5, and were drained and the ascites volume was measured. Ascites volume from mice drained at week 6 after injection.

[2] = cited from earlier work
[3] = system: Human lung cancer cell lines H23 and A549; assay: Expression of anti-viral genes and cancer testis antigens after AZA priming and HDACi treatment; type: cell-based; settings: for expression of anti-viral genes: FIG. 4A; for expression of cancer testis antigens: FIG. 4B
Source text: FIGS. 4A and 4B. […] Human lung cancer cell lines H23 and A549 were primed by treatment with AZA (red line) for 5 days followed by 3-5 days of treatment with the HDACi. For many genes, addition of an HDACi to AZA increases gene expression above levels attained by AZA alone.

[4] = HDACi in combination with AZA: AZA priming 5 days, then 3-5 days HDACi

Row | SMILES | ascites fluid volume [1] | solubility ([2]; 5% Tween 80 in water) | solubility ([2]; 5% dextrose in water) | solubility ([2]; N-methyl-2-pyrrolidone) | solubility ([2]; acetone) | solubility ([2]; dimethylsulfoxide (DMSO)) | solubility ([2]; ethanol/water (50/50)) | solubility ([2]; ethanol) | solubility ([2]; methyl ketone) | solubility ([2]; normal saline) | solubility ([2]; polyethylene glycol) | solubility ([2]; propylene glycol) | solubility ([2]; water-saturated octanol) | solubility ([2]; water) | expression of anti-viral genes [3, 4] | expression of cancer testis antigens [3, 4] | expression of anti-viral genes ([3]; HDACi used as single agent) | expression of cancer testis antigens ([3]; HDACi used as single agent)
1 | Nc1ncn([C@@H]2O[C@H](CO)[C@@H](O)[C@H]2O)c(=O)n1 [AZA, 4-amino-1-β-D-ribofuranozyl-s-triazin-2(1H)-one] | significantly reduced ascites volume compared to Mock | sparingly soluble | sparingly soluble | sparingly soluble | insoluble | soluble | slightly soluble | insoluble | insoluble | sparingly soluble | slightly soluble | slightly soluble | sparingly soluble | sparingly soluble |  |  |  | 
2 | Nc1ccccc1NC(=O)c1ccc(CNC(=O)OCc2cccnc2)cc1 [Entinostat] |  |  |  |  |  |  |  |  |  |  |  |  |  |  | increase expression | increase expression | NOT | NOT
3 | CCN(CC)Cc1ccc2cc(COC(=O)Nc3ccc(C(=O)NO)cc3)ccc2c1.Cl [Givinostat, diethyl-[6-(4-hydroxycarbamoyl-phenylcarbamoyloxymethyl)-naphthalen-2-ylmethyl]-ammonium chloride] |  |  |  |  |  |  |  |  |  |  |  |  |  |  | increase expression | increase expression | NOT | NOT
